Experiments:
[1] = tested on: ABUTH; test: Pre-emergence herbicidal action against ABUTH; assay type: in vivo, Abutilon theophrasti
Procedure, shortened: (§1)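 Greenhouse pots of sandy loam held seeds covered with soil, onto which the compound was applied before emergence. An aqueous suspension or emulsion of WP or EC was used at 600 to 800 l/ha with 0.2% wetting agent. Percent damage was judged visually at 3 weeks.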

[2] = tested on: ALOMY; test: Pre-emergence herbicidal action against ALOMY; assay type: in vivo, Alopecurus myosuroides; details: 80 g/ha, pre-emergence, scored visually after 3 weeks vs untreated controls (100% = plants have died, 0% = like control plants)
Procedure, shortened: as §1

[3] = tested on: AMARE; test: Pre-emergence herbicidal action against AMARE; assay type: in vivo, Amaranthus retroflexus
Procedure, shortened: as §1

[4] = tested on: AVEFA; test: Pre-emergence herbicidal action against AVEFA; assay type: in vivo, Avena fatua; details: 80 g/ha, pre-emergence
Procedure, shortened: as §1

[5] = tested on: ECHCG; test: Pre-emergence herbicidal action against ECHCG; assay type: in vivo, Echinochloa crus-galli
Procedure, shortened: as §1

[6] = tested on: LOLRI; test: Pre-emergence herbicidal action against LOLRI; assay type: in vivo, Lolium rigidum; details: Lolium rigidum, 504 h, 80 g/ha
Procedure, shortened: as §1

[7] = tested on: MATIN; test: Pre-emergence herbicidal action against MATIN; assay type: in vivo, Matricaria inodora
Procedure, shortened: as §1

[8] = tested on: PHBPU; test: Pre-emergence herbicidal action against PHBPU; assay type: in vivo, Pharbitis purpurea; details: Ipomoea purpurea, 504 h
Procedure, shortened: as §1

[9] = tested on: POLCO; test: Pre-emergence herbicidal action against POLCO; assay type: in vivo, Polygonum convolvulus; details: dosage 80 g/ha
Procedure, shortened: as §1

[10] = tested on: SETVI; test: Pre-emergence herbicidal action against SETVI; assay type: in vivo, Setaria viridis; details: dosage 80 g/ha
Procedure, shortened: as §1

[11] = tested on: VERPE; test: Pre-emergence herbicidal action against VERPE; assay type: in vivo, Veronica persica; details: Veronica persica, 504 h
Procedure, shortened: as §1

[12] = tested on: VIOTR; test: Pre-emergence herbicidal action against VIOTR; assay type: in vivo, Viola tricolor
Procedure, shortened: as §1

[13] = tested on: DIGSA; test: Pre-emergence herbicidal action against DIGSA; assay type: in vivo, Digitaria sanguinalis
Procedure, shortened: as §1

[14] = tested on: ABUTH; test: Post-emergence herbicidal action against ABUTH; assay type: in vivo, Abutilon theophrasti; details: visual assessment about 3 weeks after treatment vs untreated controls
Procedure, shortened: (§2)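 A WP or EC formulation diluted in water with 0.2% wetting agent was sprayed at 600 to 800 l/ha onto one-leaf-stage plants grown in sandy loam. About 3 weeks later, action was rated visually in percent, 100% being dead plants.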

[15] = tested on: ALOMY; test: Post-emergence herbicidal action against ALOMY; assay type: in vivo, Alopecurus myosuroides; details: Alopecurus myosuroides, 504 h, visual assessment about 3 weeks after treatment vs untreated controls
Procedure, shortened: as §2

[16] = tested on: AMARE; test: Post-emergence herbicidal action against AMARE; assay type: in vivo, Amaranthus retroflexus; details: 20 g/ha, visual assessment about 3 weeks after treatment, 100% = plants have died, 0% = like control plants
Procedure, shortened: as §2

[17] = tested on: AVEFA; test: Post-emergence herbicidal action against AVEFA; assay type: in vivo, Avena fatua; details: Avena fatua, 504 h, 20 g/ha, visual assessment about 3 weeks after treatment, 100% = plants have died, 0% = like control plants
Procedure, shortened: as §2

[18] = tested on: ECHCG; test: Post-emergence herbicidal action against ECHCG; assay type: in vivo, Echinochloa crus-galli
Procedure, shortened: as §2

[19] = tested on: MATIN; test: Post-emergence herbicidal action against MATIN; assay type: in vivo, Matricaria inodora; details: Tripleurospermum inodorum, 504 h
Procedure, shortened: as §2

[20] = tested on: PHBPU; test: Post-emergence herbicidal action against PHBPU; assay type: in vivo, Pharbitis purpurea; details: dosage 20 g/ha
Procedure, shortened: as §2

[21] = tested on: POLCO; test: Post-emergence herbicidal action against POLCO; assay type: in vivo, Polygonum convolvulus; details: dosage 20 g/ha
Procedure, shortened: as §2

[22] = tested on: SETVI; test: Post-emergence herbicidal action against SETVI; assay type: in vivo, Setaria viridis; details: dosage 20 g/ha
Procedure, shortened: as §2

[23] = tested on: VERPE; test: Post-emergence herbicidal action against VERPE; assay type: in vivo, Veronica persica; details: Veronica persica, 504 h
Procedure, shortened: as §2

[24] = tested on: VIOTR; test: Post-emergence herbicidal action against VIOTR; assay type: in vivo, Viola tricolor; details: 20 g/ha
Procedure, shortened: as §2

[25] = tested on: DIGSA; test: Post-emergence herbicidal action against DIGSA; assay type: in vivo, Digitaria sanguinalis
Procedure, shortened: as §2

[26] = tested on: HORMU; test: Pre-emergence herbicidal action against HORMU; assay type: in vivo, Hordeum murinum; details: 80 g/ha, pre-emergence
Procedure, shortened: as §1

[27] = tested on: STEME; test: Pre-emergence herbicidal action against STEME; assay type: in vivo, Stellaria media
Procedure, shortened: as §1

[28] = tested on: STEME; test: Post-emergence herbicidal action against STEME; assay type: in vivo, Stellaria media; details: 20 g/ha
Procedure, shortened: as §2

[29] = 80 g/ha, scored visually after 3 weeks vs untreated controls (100% = plants have died, 0% = like control plants)

## CCc1c(C(=O)Nc2nnnn2C)ccc(C(F)(F)F)c1C(=O)NC [Example 1-271]
[1]; Abutilon theophrasti, 504 h, 80 g/ha, scored visually after 3 weeks vs untreated controls (100% = plants have died, 0% = like control plants)
  pest or weed control at 80 g/ha: 100%
[1]; Abutilon theophrasti, 504 h, dosage 20 g/ha, scored visually after 3 weeks vs untreated controls, 100% = plants have died, 0% = like control plants, read-out: Pre-emergence action against ABUTH (herbicidal activity in percent)
  pest or weed control at 20 g/ha: 100%
[2]; Alopecurus myosuroides, 504 h
  pest or weed control at 80 g/ha: 90%
[3]; Amaranthus retroflexus, 504 h, 20 g/ha, scored visually after 3 weeks vs untreated controls, 100% = plants have died, 0% = like control plants
  pest or weed control at 20 g/ha: 100%
[3]; Amaranthus retroflexus, 504 h, 80 g/ha, scored visually after 3 weeks vs untreated controls, 100% = plants have died, 0% = like control plants
  pest or weed control at 80 g/ha: 100%
[4]; Avena fatua, 504 h
  pest or weed control at 80 g/ha: 80%
[5]; Echinochloa crus-galli, 504 h, 20 g/ha
  pest or weed control at 20 g/ha: 90%
[5]; Echinochloa crus-galli, 504 h, 80 g/ha
  pest or weed control at 80 g/ha: 100%
[6]
  pest or weed control at 80 g/ha: 100%
[7]; Tripleurospermum inodorum, 504 h, dosage 20 g/ha
  pest or weed control at 20 g/ha: 100%
[7]; Tripleurospermum inodorum, 504 h, dosage 80 g/ha
  pest or weed control at 80 g/ha: 100%
[8]; dosage 20 g/ha
  pest or weed control at 20 g/ha: 80%
[8]; dosage 80 g/ha
  pest or weed control at 80 g/ha: 90%
[9]; Fallopia convolvulus, 504 h
  pest or weed control at 80 g/ha: 80%
[10]; Setaria viridis, 504 h
  pest or weed control at 80 g/ha: 100%
[11]; dosage 20 g/ha
  pest or weed control at 20 g/ha: 90%
[11]; dosage 80 g/ha
  pest or weed control at 80 g/ha: 100%
[12]; Viola tricolor, 504 h, dosage 20 g/ha
  pest or weed control at 20 g/ha: 100%
[12]; Viola tricolor, 504 h, dosage 80 g/ha
  pest or weed control at 80 g/ha: 100%
[13]; Digitaria sanguinalis, 504 h, dosage 20 g/ha
  pest or weed control at 20 g/ha: 100%
[13]; Digitaria sanguinalis, 504 h, dosage 80 g/ha
  pest or weed control at 80 g/ha: 100%
[14]; Abutilon theophrasti, 504 h, dosage 5 g/ha
  pest or weed control at 5 g/ha: 80%
[14]; Abutilon theophrasti, 504 h, dosage 20 g/ha
  pest or weed control at 20 g/ha: 90%
[15]; dosage 5 g/ha
  pest or weed control at 5 g/ha: 80%
[15]; dosage 20 g/ha
  pest or weed control at 20 g/ha: 90%
[16]; Amaranthus retroflexus, 504 h
  pest or weed control at 20 g/ha: 90%
[17]
  pest or weed control at 20 g/ha: 80%
[18]; Echinochloa crus-galli, 504 h, dosage 5 g/ha
  pest or weed control at 5 g/ha: 80%
[18]; Echinochloa crus-galli, 504 h, dosage 20 g/ha
  pest or weed control at 20 g/ha: 80%
[19]; dosage 5 g/ha
  pest or weed control at 5 g/ha: 90%
[19]; dosage 20 g/ha
  pest or weed control at 20 g/ha: 90%
[20]; Ipomoea purpurea, 504 h
  pest or weed control at 20 g/ha: 90%
[21]; Fallopia convolvulus, 504 h
  pest or weed control at 20 g/ha: 80%
[22]; Setaria viridis, 504 h
  pest or weed control at 20 g/ha: 80%
[23]; 5 g/ha
  pest or weed control at 5 g/ha: 80%
[23]; 20 g/ha
  pest or weed control at 20 g/ha: 90%
[24]; Viola tricolor, 504 h
  pest or weed control at 20 g/ha: 90%
[25]; Digitaria sanguinalis, 504 h, 5 g/ha
  pest or weed control at 5 g/ha: 90%
[25]; Digitaria sanguinalis, 504 h, 20 g/ha
  pest or weed control at 20 g/ha: 100%

## CCNC(=O)c1c(C(F)(F)F)ccc(C(=O)Nc2nnc(C)o2)c1C [Example 6-26]
[1]; [29]
  Pre-emergence action against ABUTH (herbicidal activity): 100%
[1]; dosage 20 g/ha, scored visually after 3 weeks vs untreated controls, 100% = plants have died, 0% = like control plants
  Pre-emergence action against ABUTH (herbicidal activity in percent): 100%
[2]
  Pre-emergence action against ALOMY (herbicidal activity): 80%
[3]; 20 g/ha, scored visually after 3 weeks vs untreated controls, 100% = plants have died, 0% = like control plants
  Pre-emergence action against AMARE in %: 100%
[3]; [29]
  Pre-emergence action against AMARE in %: 100%
[4]
  Pre-emergence action against AVEFA in %: 80%
[5]; 80 g/ha
  Pre-emergence action against ECHCG in %: 100%
[26]
  Pre-emergence action against HORMU in %: 80%
[7]; dosage 20 g/ha
  Pre-emergence action against MATIN in %: 80%
[7]; dosage 80 g/ha
  Pre-emergence action against MATIN in %: 90%
[9]
  Pre-emergence action against POLCO in %: 100%
[10]
  Pre-emergence action against SETVI in %: 100%
[27]; dosage 20 g/ha
  Pre-emergence action against STEME in %: 80%
[27]; dosage 80 g/ha
  Pre-emergence action against STEME in %: 100%
[12]; dosage 80 g/ha
  Pre-emergence action against VIOTR in %: 100%
[13]; dosage 20 g/ha
  Pre-emergence action against DIGSA in %: 100%
[13]; dosage 80 g/ha
  Pre-emergence action against DIGSA in %: 100%
[14]; dosage 5 g/ha
  Post-emergence action against ABUTH in %: 90%
[14]; dosage 20 g/ha
  Post-emergence action against ABUTH in %: 90%
[16]
  Post-emergence action at 20 g/ha against AMARE in %: 100%
[18]; dosage 5 g/ha
  Post-emergence action against ECHCG in %: 80%
[18]; dosage 20 g/ha
  Post-emergence action against ECHCG in %: 90%
[20]
  Post-emergence action against PHBPU in %: 80%
[21]
  Post-emergence action against POLCO in %: 80%
[22]
  Post-emergence action against SETVI in %: 80%
[28]
  Post-emergence action against STEME in %: 80%
[24]
  Post-emergence action against VIOTR in %: 100%
[25]; 5 g/ha
  Post-emergence action against DIGSA in %: 90%
[25]; 20 g/ha
  Post-emergence action against DIGSA: 90%

Source: US12655116B2, “Substituted isophthalic acid diamides” (Bayer Aktiengesellschaft, priority 2020, dated 2026)
